According to ChEMBL document CHEMBL5584280, “Optimization of Novel Pyrido-pyridazinone Derivatives as FER Tyrosine Kinase Inhibitors, Leading to the Potent DS08701581” (ACS Med Chem Lett, 2024):
Converted amounts (≈) assume the structure as drawn. One block for each compound: values may come before it.

Experiments:
[1] = AUC in BALB/cAnNCrlCrlj mouse at 10 mg/kg, po; assay type: ADME, organism-based; settings: in vivo
[2] = Solubility of compound in FaSSIF incubated for 4 hrs by HPLC-UV analysis; assay type: ADME
[3] = target: Serine/threonine-protein kinase Chk2 (Homo sapiens) (UniProt O96017); test: Inhibition of CHEK2 (unknown origin) at 200 nM in presence of ATP by kinase profiling analysis relative to control
[4] = Toxicity in BALB/cAJcl-nu/nu mouse xenografted with […] mouse BaF3 cells expressing FER at 6.25 to 100 mg/kg, po qd for 10 days; assay type: organism-based; settings: in vivo, 240 h, dose 6.25-100 mg/kg, time 10 day
BaF3 [5] = test: Inhibition of cell viability in mouse BaF3 cells incubated for 3 days by Cell Titer Glo assay; assay type: functional; settings: BaF3, 72 h, time 3 day
[6] = target: Protein-tyrosine kinase 2-beta (Homo sapiens) (UniProt Q14289); test: Inhibition of PTK2B (unknown origin) at 200 nM in presence of ATP by kinase profiling analysis relative to control
BaF3 [7] = test: Antitumor activity against […] mouse BaF3 cells expressing FER xenografted in BALB/cAJcl-nu/nu mouse administered orally once a day for 4 days; assay type: functional, cell-based; settings: dose 6.25-100 mg/kg, route po, time 4.0 day
[8] = target: Leukocyte tyrosine kinase receptor (Homo sapiens) (UniProt P29376); test: Inhibition of LTK (unknown origin) at 200 nM in presence of ATP by kinase profiling analysis relative to control
[9] = Permeability co-efficient of compound at 5 uM incubated for 4 hrs by PAMPA; assay type: ADME; settings: read-out: Peff
[10] = Protein binding in BALB/c mouse serum at 10 ug/ml incubated for 4 hrs by equilibrium dialysis; assay type: ADME, cell-free; settings: at 10 µg/mL, read-out: PB (converted)
[11] = Oral bioavailability in BALB/cAnNCrlCrlj mouse at 10 mg/kg; assay type: ADME, organism-based; settings: in vivo
[12] = target: Tyrosine-protein kinase SYK (Homo sapiens) (UniProt P43405); test: Inhibition of SYK (unknown origin) at 200 nM in presence of ATP by kinase profiling analysis relative to control
[13] = Total plasma clearance in BALB/cAnNCrlCrlj mouse at 1 mg/kg, iv; assay type: ADME, organism-based
BaF3 [14] = test: Inhibition of cell viability in mouse BaF3 cells expressing FER incubated for 3 days by Cell Titer Glo assay; assay type: functional; settings: BaF3, 72 h, time 3 day
[15] = target: Receptor-type tyrosine-protein kinase FLT3 (Homo sapiens) (UniProt P36888); test: Inhibition of FLT3 (unknown origin) at 200 nM in presence of ATP by kinase profiling analysis relative to control
[16] = Solubility of compound in buffer at pH 6.8 incubated for 4 hrs by HPLC-UV analysis; assay type: physicochemical
[17] = Metabolic stability in CD-1 mouse liver microsomes assessed as compound remaining at 1 uM incubated for 30 mins by LC-MS/MS analysis; assay type: ADME, Microsome; settings: read-out: Stability
[18] = Cmax in BALB/cAnNCrlCrlj mouse at 10 mg/kg, po; assay type: ADME, organism-based; settings: in vivo
[19] = target: ALK tyrosine kinase receptor (Homo sapiens) (UniProt Q9UM73); test: Inhibition of ALK (unknown origin) at 200 nM in presence of ATP by kinase profiling analysis relative to control
[20] = target: T1, Testis-specific serine/threonine-protein kinase 1 (Homo sapiens) (UniProt Q9BXA7); test: Inhibition of TSSK1B (unknown origin) at 200 nM in presence of ATP by kinase profiling analysis relative to control
T1 sequence (whole entry): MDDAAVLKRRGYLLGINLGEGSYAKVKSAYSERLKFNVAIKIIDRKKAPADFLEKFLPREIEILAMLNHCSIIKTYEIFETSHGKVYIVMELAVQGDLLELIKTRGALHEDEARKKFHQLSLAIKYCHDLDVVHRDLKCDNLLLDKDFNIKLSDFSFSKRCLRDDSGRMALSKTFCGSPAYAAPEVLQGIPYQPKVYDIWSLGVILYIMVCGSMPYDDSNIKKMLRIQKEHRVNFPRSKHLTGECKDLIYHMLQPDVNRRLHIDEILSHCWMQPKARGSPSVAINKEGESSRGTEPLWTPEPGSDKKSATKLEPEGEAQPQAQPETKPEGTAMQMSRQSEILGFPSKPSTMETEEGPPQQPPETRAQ

[21] = target: Mast/stem cell growth factor receptor Kit (Homo sapiens) (UniProt P10721); test: Inhibition of KIT (unknown origin) at 200 nM in presence of ATP by kinase profiling analysis relative to control
[22] = target: Cyclin-dependent kinase 2 (Homo sapiens) (UniProt P24941); test: Inhibition of CDK2 (unknown origin) at 200 nM in presence of ATP by kinase profiling analysis relative to control
[23] = target: Mitogen-activated protein kinase kinase kinase kinase 4 (Homo sapiens) (UniProt O95819); test: Inhibition of MAP4K4 (unknown origin) at 200 nM in presence of ATP by kinase profiling analysis relative to control
[24] = target: Proto-oncogene tyrosine-protein kinase ROS (Homo sapiens) (UniProt P08922); test: Inhibition of ROS1 (unknown origin) at 200 nM in presence of ATP by kinase profiling analysis relative to control
[25] = target: Macrophage colony-stimulating factor 1 receptor (Homo sapiens) (UniProt P07333); test: Inhibition of CSF1R (unknown origin) at 200 nM in presence of ATP by kinase profiling analysis relative to control
[26] = Toxicity in BALB/cAJcl-nu/nu mouse xenografted with […] mouse BaF3 cells expressing FER at 100 mg/kg, po qd for 10 days; assay type: organism-based; settings: in vivo, 240 h, time 10 day
[27] = target: Tyrosine-protein kinase Fer (Homo sapiens, UniProt P16591); test: Inhibition of N-terminal His-tagged recombinant human FER using FL-Peptide22 as substrate incubated for 90 mins in presence of ATP
Homo sapiens = organism: Homo sapiens; test: Inhibition of NTRK1 (unknown origin) at 200 nM in presence of ATP by kinase profiling analysis relative to control

Sequence of ALK tyrosine kinase receptor (Homo sapiens) (Q9UM73 19-1620 limits assumed): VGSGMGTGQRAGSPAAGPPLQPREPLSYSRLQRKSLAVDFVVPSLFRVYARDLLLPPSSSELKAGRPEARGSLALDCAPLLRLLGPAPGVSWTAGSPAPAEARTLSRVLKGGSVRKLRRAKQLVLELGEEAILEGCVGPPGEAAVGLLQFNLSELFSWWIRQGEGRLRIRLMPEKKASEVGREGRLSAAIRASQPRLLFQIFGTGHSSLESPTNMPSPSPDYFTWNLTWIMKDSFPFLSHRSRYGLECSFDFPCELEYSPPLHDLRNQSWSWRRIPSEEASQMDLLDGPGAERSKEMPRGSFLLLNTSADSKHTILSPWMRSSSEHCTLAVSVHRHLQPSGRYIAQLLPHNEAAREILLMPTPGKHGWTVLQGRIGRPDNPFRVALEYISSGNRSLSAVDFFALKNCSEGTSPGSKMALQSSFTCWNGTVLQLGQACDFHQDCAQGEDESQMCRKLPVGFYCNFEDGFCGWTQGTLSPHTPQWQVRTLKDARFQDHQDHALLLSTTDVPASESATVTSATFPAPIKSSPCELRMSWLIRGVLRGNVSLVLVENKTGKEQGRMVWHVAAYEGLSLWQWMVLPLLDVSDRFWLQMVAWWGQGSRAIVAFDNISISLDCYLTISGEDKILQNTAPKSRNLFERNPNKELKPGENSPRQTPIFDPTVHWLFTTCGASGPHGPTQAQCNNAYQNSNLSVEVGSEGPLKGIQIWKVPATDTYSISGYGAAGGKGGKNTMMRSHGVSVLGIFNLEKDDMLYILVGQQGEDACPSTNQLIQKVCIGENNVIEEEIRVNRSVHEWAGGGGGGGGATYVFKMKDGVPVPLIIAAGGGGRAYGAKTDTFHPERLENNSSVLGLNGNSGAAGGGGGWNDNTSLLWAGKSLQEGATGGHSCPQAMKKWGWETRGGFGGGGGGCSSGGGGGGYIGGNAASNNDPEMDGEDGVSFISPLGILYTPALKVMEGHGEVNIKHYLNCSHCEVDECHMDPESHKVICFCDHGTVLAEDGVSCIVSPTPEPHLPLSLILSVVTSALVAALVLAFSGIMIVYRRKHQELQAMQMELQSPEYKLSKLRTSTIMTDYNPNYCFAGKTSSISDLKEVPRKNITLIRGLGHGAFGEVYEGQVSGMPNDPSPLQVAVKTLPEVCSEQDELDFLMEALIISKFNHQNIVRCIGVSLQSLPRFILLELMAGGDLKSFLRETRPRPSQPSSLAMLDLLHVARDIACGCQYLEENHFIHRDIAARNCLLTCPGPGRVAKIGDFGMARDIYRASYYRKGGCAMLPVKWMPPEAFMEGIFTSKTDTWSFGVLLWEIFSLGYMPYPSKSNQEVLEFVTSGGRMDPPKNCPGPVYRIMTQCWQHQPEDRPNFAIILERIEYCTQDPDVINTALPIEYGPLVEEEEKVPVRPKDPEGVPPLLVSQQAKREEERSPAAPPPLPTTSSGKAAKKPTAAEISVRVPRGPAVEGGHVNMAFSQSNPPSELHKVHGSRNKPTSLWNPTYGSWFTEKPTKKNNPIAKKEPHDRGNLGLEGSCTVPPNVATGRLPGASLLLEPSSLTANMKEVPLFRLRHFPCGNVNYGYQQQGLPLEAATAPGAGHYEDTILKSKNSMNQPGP
Sequence of Protein-tyrosine kinase 2-beta (Homo sapiens) (Q14289 whole entry, looked up): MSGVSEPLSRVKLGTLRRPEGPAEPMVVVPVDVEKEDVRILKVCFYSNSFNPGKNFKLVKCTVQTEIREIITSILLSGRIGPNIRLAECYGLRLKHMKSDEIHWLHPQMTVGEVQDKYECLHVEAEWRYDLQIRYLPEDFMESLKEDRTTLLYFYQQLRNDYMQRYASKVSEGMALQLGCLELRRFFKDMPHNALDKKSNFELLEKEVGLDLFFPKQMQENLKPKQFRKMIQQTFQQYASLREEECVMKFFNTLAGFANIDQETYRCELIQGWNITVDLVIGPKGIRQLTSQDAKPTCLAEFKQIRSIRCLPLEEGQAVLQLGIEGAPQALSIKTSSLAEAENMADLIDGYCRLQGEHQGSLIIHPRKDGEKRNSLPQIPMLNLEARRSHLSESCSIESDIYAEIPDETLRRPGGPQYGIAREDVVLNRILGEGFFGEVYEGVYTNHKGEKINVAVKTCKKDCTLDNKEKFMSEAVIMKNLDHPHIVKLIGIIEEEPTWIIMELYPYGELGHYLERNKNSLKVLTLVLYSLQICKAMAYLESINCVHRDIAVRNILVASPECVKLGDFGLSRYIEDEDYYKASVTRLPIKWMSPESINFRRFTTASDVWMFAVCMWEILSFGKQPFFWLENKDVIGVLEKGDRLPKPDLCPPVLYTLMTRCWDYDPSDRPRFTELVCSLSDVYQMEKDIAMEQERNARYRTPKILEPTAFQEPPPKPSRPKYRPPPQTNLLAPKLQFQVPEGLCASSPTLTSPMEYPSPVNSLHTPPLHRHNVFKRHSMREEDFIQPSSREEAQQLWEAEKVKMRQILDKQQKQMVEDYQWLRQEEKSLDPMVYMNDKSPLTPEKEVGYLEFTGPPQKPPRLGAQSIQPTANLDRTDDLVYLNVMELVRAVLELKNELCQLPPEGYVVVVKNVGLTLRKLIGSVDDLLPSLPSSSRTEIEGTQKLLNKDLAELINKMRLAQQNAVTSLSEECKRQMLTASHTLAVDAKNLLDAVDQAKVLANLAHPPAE
Sequence of Receptor-type tyrosine-protein kinase FLT3 (Homo sapiens) (P36888 whole entry): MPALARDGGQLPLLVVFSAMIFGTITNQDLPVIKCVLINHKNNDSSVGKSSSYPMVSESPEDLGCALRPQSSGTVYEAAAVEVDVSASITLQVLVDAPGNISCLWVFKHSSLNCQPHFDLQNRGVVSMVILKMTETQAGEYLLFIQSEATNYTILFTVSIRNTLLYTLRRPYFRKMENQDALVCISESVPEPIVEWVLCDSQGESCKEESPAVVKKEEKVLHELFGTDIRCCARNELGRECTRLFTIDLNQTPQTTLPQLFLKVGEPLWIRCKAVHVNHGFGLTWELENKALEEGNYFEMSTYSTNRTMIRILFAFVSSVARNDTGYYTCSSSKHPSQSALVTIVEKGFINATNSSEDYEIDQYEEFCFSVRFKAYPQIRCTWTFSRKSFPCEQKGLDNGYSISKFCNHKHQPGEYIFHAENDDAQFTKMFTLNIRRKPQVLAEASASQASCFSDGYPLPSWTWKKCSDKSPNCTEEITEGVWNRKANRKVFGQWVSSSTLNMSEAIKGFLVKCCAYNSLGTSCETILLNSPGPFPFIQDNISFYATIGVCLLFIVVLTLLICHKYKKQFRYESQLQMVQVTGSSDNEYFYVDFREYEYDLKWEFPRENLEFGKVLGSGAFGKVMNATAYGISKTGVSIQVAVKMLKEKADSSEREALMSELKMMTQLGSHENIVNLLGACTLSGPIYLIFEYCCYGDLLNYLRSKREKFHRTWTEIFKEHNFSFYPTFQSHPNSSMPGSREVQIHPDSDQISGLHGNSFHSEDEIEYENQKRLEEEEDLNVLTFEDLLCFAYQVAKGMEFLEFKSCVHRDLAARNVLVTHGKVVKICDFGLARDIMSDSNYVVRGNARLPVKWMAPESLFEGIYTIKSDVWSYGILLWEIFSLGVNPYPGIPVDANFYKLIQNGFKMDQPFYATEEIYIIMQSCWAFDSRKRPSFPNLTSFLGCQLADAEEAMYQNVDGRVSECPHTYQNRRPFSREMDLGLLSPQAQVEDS
Sequence of Serine/threonine-protein kinase Chk2 (Homo sapiens) (O96017 whole entry): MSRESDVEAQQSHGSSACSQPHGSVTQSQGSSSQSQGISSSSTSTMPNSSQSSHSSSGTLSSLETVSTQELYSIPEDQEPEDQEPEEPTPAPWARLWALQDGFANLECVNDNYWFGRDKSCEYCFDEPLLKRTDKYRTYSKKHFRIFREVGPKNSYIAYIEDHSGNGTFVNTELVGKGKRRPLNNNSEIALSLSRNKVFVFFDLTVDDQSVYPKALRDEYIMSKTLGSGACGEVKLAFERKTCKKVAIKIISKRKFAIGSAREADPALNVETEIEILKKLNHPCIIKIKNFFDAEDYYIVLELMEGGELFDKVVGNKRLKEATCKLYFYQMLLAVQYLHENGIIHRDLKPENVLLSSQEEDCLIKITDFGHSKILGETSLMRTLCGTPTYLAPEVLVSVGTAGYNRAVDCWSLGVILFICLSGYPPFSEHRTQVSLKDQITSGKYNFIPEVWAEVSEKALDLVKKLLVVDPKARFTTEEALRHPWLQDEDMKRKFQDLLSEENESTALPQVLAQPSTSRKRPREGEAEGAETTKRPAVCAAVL
Sequence of Tyrosine-protein kinase Fer (P16591 whole entry): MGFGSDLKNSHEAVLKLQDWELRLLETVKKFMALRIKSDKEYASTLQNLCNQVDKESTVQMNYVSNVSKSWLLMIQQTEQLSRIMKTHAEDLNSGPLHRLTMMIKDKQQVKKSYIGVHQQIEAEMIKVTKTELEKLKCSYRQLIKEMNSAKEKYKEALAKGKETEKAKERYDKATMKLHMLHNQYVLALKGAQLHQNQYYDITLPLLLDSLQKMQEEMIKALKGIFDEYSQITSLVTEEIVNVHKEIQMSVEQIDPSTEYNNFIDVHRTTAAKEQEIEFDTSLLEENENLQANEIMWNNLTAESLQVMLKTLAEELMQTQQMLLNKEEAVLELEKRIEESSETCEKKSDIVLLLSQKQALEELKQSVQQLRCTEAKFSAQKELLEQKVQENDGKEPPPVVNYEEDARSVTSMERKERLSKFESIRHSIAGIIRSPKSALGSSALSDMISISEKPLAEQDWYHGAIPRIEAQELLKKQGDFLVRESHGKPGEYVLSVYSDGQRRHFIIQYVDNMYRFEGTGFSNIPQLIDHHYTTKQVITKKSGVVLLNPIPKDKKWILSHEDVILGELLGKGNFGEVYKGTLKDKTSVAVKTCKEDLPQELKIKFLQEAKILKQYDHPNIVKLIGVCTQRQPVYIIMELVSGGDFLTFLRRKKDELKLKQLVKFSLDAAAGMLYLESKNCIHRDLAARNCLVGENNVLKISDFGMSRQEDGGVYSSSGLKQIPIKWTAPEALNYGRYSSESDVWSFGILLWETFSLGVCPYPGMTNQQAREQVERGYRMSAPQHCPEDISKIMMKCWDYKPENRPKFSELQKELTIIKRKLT

SMILES: C[C@@H]1CN(c2cccc(Nc3nc(N[C@@H]4CCCC[C@@H]4N)c(C#N)c4cn[nH]c(=O)c34)c2)C[C@H](C)O1
AUC [1]: 8200 ng·h/mL | solubility at 4 h [2]: 30 µg/mL (≈ 61.4 µM) | inhibition [3]: > 90% | Activity [4]: Non-Toxic | GI50 (BaF3 [5]): 1000 nM | inhibition [6]: > 90% | Activity (BaF3 [7]): Dose-Dependent Effect | inhibition [8]: > 90% | Papp at 4 h, 5 µM [9]: > 50 ×10⁻⁶ cm/s | fraction unbound at 4 h, 10 ug/ml [10]: 0.03 | bioavailability [11]: 65% | inhibition [12]: > 90% | clearance [13]: 13 mL/min/kg | GI50 (BaF3 [14]): 0.67 nM | inhibition [15]: > 90% | solubility at 4 h [16]: 6.7 µg/mL (≈ 13.7 µM) | remaining at 0.5 h, 1 µM [17]: 85% | Cmax [18]: 630 ng/mL | inhibition [19]: > 90% | inhibition [20]: > 90%

SMILES: Cc1cccc(Nc2nc(NC3CCCCC3N)c(F)c3cn[nH]c(=O)c23)c1 (racemic)
GI50 (BaF3 [5]): 1230 nM | GI50 (BaF3 [14]): 30 nM

SMILES: CN1CCN(c2cccc(Nc3nc(NC4CCCCC4N)c(F)c4cn[nH]c(=O)c34)c2)CC1 (racemic)
GI50 (BaF3 [5]): 630 nM | GI50 (BaF3 [14]): 76 nM

SMILES: CCOc1cccc(Nc2nc(NC3CCCCC3N)c(F)c3cn[nH]c(=O)c23)c1 (racemic)
GI50 (BaF3 [5]): 1600 nM | GI50 (BaF3 [14]): 50 nM

SMILES: N[C@H]1CCCC[C@H]1Nc1nc(Nc2cccc(N3CCOCC3)c2)c2c(=O)[nH]ncc2c1F
GI50 (BaF3 [5]): 1200 nM | GI50 (BaF3 [14]): 4.7 nM

SMILES: N#Cc1c(N[C@@H]2CCCC[C@@H]2N)nc(Nc2cccc(N3CC4(COC4)C3)c2)c2c(=O)[nH]ncc12
GI50 (BaF3 [5]): 362 nM | GI50 (BaF3 [14]): 0.36 nM

Now those with a lower GI50 (BaF3 [5]), led by results:

GI50 (BaF3 [5]): 340 nM | GI50 (BaF3 [14]): 57 nM
SMILES: Cn1cc(Nc2nc(NC3CCCCC3N)c(F)c3cn[nH]c(=O)c23)cn1 (racemic)

AUC [1]: 4800 ng·h/mL | solubility at 4 h [2]: 2.1 µg/mL (≈ 5.39 µM) | inhibition [3]: > 90% | inhibition [21]: > 90% | GI50 (BaF3 [5]): 220 nM | inhibition [6]: > 90% | inhibition [22]: > 90% | Papp at 4 h, 5 µM [9]: > 50 ×10⁻⁶ cm/s | fraction unbound at 4 h, 10 ug/ml [10]: 0.01 | inhibition [23]: > 90% | bioavailability [11]: 34% | inhibition [24]: > 90% | inhibition [12]: > 90% | clearance [13]: 12 mL/min/kg | GI50 (BaF3 [14]): 1.9 nM | inhibition [25]: > 90% | inhibition [15]: > 90% | solubility at 4 h [16]: 0.9 µg/mL (≈ 2.31 µM) | remaining at 0.5 h, 1 µM [17]: 96% | Cmax [18]: 360 ng/mL | IC50 [27]: 0.49 nM | inhibition (Homo sapiens): > 90% | inhibition [19]: > 90% | inhibition [20]: > 90%
SMILES: Cc1cccc(Nc2nc(NC3CCCCC3N)c(C#N)c3cn[nH]c(=O)c23)c1 (centres undefined)
Activity [26]: Toxic

GI50 (BaF3 [5]): 310 nM | GI50 (BaF3 [14]): 1.2 nM
SMILES: N#Cc1c(N[C@@H]2CCCC[C@@H]2N)nc(Nc2cccc(N3CCOCC3)c2)c2c(=O)[nH]ncc12
